This assay addresses T1, Aryl hydrocarbon receptor (Mus musculus, UniProt P30561).
T1 sequence (P30561 whole entry): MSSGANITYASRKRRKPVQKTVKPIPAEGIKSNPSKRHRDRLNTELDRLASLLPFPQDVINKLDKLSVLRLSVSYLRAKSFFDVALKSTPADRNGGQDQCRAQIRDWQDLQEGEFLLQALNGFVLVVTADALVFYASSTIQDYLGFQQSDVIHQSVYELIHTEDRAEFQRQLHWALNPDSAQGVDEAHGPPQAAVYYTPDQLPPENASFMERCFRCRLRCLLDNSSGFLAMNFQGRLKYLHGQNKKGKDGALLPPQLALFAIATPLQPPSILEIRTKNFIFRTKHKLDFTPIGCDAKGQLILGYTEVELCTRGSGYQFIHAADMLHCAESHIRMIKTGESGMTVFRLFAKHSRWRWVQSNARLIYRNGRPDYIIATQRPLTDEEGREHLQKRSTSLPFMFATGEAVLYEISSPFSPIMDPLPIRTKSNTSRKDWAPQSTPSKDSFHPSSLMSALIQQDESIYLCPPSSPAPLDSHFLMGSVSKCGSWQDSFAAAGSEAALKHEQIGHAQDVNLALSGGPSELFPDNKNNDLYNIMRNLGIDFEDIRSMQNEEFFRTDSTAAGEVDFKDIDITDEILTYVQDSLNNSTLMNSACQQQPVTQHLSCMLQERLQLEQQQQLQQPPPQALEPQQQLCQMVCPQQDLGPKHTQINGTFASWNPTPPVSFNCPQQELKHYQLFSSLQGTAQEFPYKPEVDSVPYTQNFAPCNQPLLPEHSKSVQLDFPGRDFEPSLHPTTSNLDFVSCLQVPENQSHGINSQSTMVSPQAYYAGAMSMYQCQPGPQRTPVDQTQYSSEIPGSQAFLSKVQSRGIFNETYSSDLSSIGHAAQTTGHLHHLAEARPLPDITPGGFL
As to the kind of experiment: Binding Assay. The note with it: pH 7.5; 0 °C. The method, then: The equilibrium dissocation constants, KD values for the photoaffinity ligands were determined by a competitive binding assay.

The molecule `[N-]=[N+]=Nc1cc(Cl)cc2c1Oc1cc(Cl)c(Cl)cc1O2` [Photoaffinity ligand, 1] came in with a Kd of 0.44 nM.

`[N-]=[N+]=Nc1c(I)c(Cl)cc2c1Oc1cc(Cl)c(Cl)cc1O2` [Photoaffinity ligand, 2]: binding was characterised by a dissociation constant (Kd) of 2.1 nM. The result for `[N-]=[N+]=Nc1cc2c(cc1Cl)Oc1cc(Cl)c(Cl)cc1O2` [Photoaffinity ligand, 3] reads 0.49 nM. The molecule `[N-]=[N+]=Nc1cc2c(cc1I)Oc1cc(Br)c(Br)cc1O2` [Photoaffinity ligand, 4] displayed a Kd of 0.76 nM.

For the molecule `[N-]=[N+]=Nc1ccc([N+](=O)[O-])c(C(=O)NCc2c(Cl)c(Cl)cc3c2Oc2cc(Cl)c(Cl)cc2O3)c1` [Photoaffinity ligand, 5], binding was put at a Kd of 13 nM. Under `[N-]=[N+]=Nc1ccc(C(=O)NCc2c(Cl)c(Cl)cc3c2Oc2cc(Cl)c(Cl)cc2O3)cc1` [Photoaffinity ligand, 6] stands 8.1 nM; under `[N-]=[N+]=Nc1ccc(C(=O)NCc2c(Cl)c(Cl)cc3c2Oc2cc(Cl)c(Cl)cc2O3)c(O)c1` [Photoaffinity ligand, 7], 113 nM; under `[N-]=[N+]=Nc1ccc(NCCCCCC(=O)NCc2c(Cl)c(Cl)cc3c2Oc2cc(Cl)c(Cl)cc2O3)c([N+](=O)[O-])c1` [Photoaffinity ligand, 8], 11 nM.

For the origin of these results see BindingDB's records for PubMed 3009454 (University of Wisconsin, 1986).
